Assay results reported in PMC12126525, “Mechanism of ATP hydrolysis in the Hsp70 BiP nucleotide-binding domain” (Nature Communications, 2025).
Where “and” joins values, the source holds several entries; their conditions need not be identical. Equal values may be shown once.

How the values were obtained:
Set-up in all cases: His6 (N, cleaved yes); made in house; host or cells: E. coli BL21-(DE3)-Lemo, pET28a vector
BiP NBD [1] = target: T1, BiP NBD (Homo sapiens, UniProt P11021); assay: In-cyclo NMR with ATP regeneration (E1) and phosphate removal (E2): hydrolysis rate, state populations, occupancy times; format: biochemical; settings: for khydr: Fig 3 f source data: replicates [1]-[3] and average; for cycle timing: Fig 4f source data: replicates [1]-[3] and average
T1 sequence (P11021 19-406): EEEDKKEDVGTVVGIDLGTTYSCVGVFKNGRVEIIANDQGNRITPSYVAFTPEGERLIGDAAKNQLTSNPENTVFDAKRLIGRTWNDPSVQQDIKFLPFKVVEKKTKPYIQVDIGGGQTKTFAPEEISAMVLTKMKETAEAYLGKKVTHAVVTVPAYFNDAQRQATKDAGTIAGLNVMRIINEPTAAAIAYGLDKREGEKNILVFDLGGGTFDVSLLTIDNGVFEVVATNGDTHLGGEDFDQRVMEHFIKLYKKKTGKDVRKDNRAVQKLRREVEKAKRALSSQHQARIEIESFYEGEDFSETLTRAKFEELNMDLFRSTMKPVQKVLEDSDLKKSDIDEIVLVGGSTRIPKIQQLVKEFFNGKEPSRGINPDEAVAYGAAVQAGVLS
Description: In order to create a stable steady-state condition, we implemented two enzymatic systems inside the NMR tube to convert ADP into ATP and to remove the free phosphate, respectively. The first enzyme (E1) is pyruvate kinase, at catalytic amounts, which combines phosphoenol pyruvate (PEP) and ADP to form ATP (Fig. 3a). […] The second enzyme (E2) is sucrose phosphorylase, at catalytic amounts, which catalyzes the conversion of sucrose and phosphate into α-D-glucose-1-phosphate and D-fructose. […] To distinguish this experiment from equilibrium experiments, and highlight the unique setup to control ATP, ADP and Pi levels simultaneously, we refer to this setup as the “in-cyclo” NMR experiment.
We then set out to determine the kinetic parameters of the functional cycle. The NMR signal intensities of each of the three detected states are proportional to their population in the steady state. We integrated 51 non-overlapping independent methyl groups to obtain the population ratio pDtotal/pT, including 7 non-overlapping independent methyl groups to obtain the subpopulation ratio pD·Pi/pD.
The macroscopic hydrolysis rate khydr is experimentally determined from monitoring the pyruvate production. From there, the reaction flux f of the functional cycle results as19 f=khydrNBD0 The inverse of the hydrolysis rate is the average length of the functional cycle T.20 T=khydr−1 The flux is maintained along the cycle, resulting in the equations21 f=kcatNBD^ATP 22 f=koff4+koff5⋅NBD^ADP⋅Pi 23 f=koff2NBD^ADP+koff3NBD^Pi 24 f=kon1NBD^apoATP−koff1NBD^ATP 25 koff2NBD^ADP=koff4NBD^ADP⋅Pi
All in-cyclo NMR experiments were recorded with BiP NBD samples [U-^2H, ^15N, ^12C], Met-[^13CH3]^ε, Val-[^13CH3/^12C^2H3]^cγ1/cγ2, Ile-[^13CH3]^δ1 in NMR buffer (25 mM HEPES, pH 7.5, 150 mM KCl and 10 mM MgCl2) at a concentration of BiP NBD 100 μM. The in-cyclo ATP regeneration system was composed of 5 units of pyruvate kinase (E1) from rabbit muscle ( ≈ 200 nM; Sigma-Aldrich) and the concentration of phosphoenolpyruvate (PEP- Sigma-Aldrich) was adjusted to maintain the system active for at least four hours ([PEP] = 10–100 mM). The in-cyclo phosphate removal system was composed of 5 units of recombinant sucrose phosphorylase (E2) ( ≈ 500 nM; Sigma-Aldrich) and the concentration of sucrose (Sigma-Aldrich) was adjusted to maintain the system active for at least four hours ([Sucrose] = 10–100 mM). This experimental setup was modified as described in the text by selectively including E1 and/or E2 depending on the purpose of the experiments. All the experiments were recorded at minimum as experimental triplicates.
The in-cyclo experiment was initiated by the addition of 5 mM ATP (Sigma-Aldrich) and allowed to equilibrate at a temperature of 37 °C for 5 min in the NMR spectrometer. After the equilibration time 2D [^13C,^1H]-HMQC spectra were recorded in interleaved mode with 1D ^1H NMR spectra. […] The same setup was used for the alternative experiments by including or excluding E1 and/or E2.

BiP NBD [2] = target: T1, BiP NBD; assay: NMR titration (equilibrium methyl-TROSY) with phosphate; format: binding; settings: for Average IMABAADP.pi/IMABAADP: Supplementary Fig 12 f
BiP NBD [3] = target: T1, BiP NBD; assay: NMR without ATP regeneration at variable ADP:ATP ratio with 3.3 mM calcium, with and without E2; format: biochemical; settings: replicates
Description: Finally, we wanted to explore the effect of calcium on conditions with variable ADP concentration that represent the conditions in the ER. We thus exploited our modular experimental setup in the absence of the ATP regeneration system, with and without phosphate, to generate conditions where the ADP concentration increases (Supplementary Fig. 18). We determined the ATP hydrolysis rate and the populations of the different states for different ADP:ATP ratios and phosphate concentrations. We observed NMR signals corresponding to the NBD·ADP·Ca^2+-bound state, but not the NBD·Ca^2+-bound state, with population and occupancy time increasing with the ADP concentration (Fig. 5e). When free phosphate was allowed to accumulate in parallel, the occupancy time of the NBD·ADP·Ca^2+ state decreased, showing that the phosphate prevents the calcium from binding (Fig. 5f).
Supplementary Figure 18. NBD·ADP·Ca2+ forms as an off-cycle pathway state. a, 2D [13C,1H]-TROSY spectrum of methyl-labeled NBD in the presence of ADP:ATP 1:3, 3.3 mM calcium ([Mg2+]/[Ca2+]=3) and E2 active. State- and sequence-specific resonance assignments are indicated for the ADP·Ca2+- bound state (dark-pink), ADP-bound (light blue), ADP·Pi-bound (dark blue) and ATP-bound (red) states. b, Selected sections of 2D [13C,1H]-methyl-TROSY spectra of residue Val50cg1 in the presence of ADP:ATP 1:3 (pink) and with 3.3 mM calcium ([Mg2+]/[Ca2+]=3) (black) compared to in-cyclo no calcium (pink) and the equilibrium experiments of NBD with 3.3 mM calcium ([Mg2+]/[Ca2+]=3) (ligh-pink), NBD with 1 mM ADP and 3.3 mM calcium ([Mg2+]/[Ca2+]=3) (dark-pink). c,d, same as in (a,b) for the system in the absence of E2, i.e the phosphate concentration increases with ATP hydrolysis.

Nc1ncnc2c1ncn2[C@@H]1O[C@H](COP(=O)(O)OP(=O)(O)OP(=O)(O)O)[C@@H](O)[C@H]1O [ATP]
ATP consumption (BiP NBD [1]; 100 μM BiP NBD, 5 mM ATP, 37 °C): 0.15 ± 0.01 mM/min | khydr (BiP NBD [1]): 1.417 min⁻¹ and 1.507 min⁻¹ and 1.488 min⁻¹ | khydr (BiP NBD [1]; mean): 1.471 min⁻¹ | cycle timing (BiP NBD [1]): 42.34 s and 39.82 s and 40.31 s | cycle timing (BiP NBD [1]; mean): 41 s | catalytic ATP hydrolysis rate kcat = tT^−1 (BiP NBD [1]; from occupancy time of the T state): 0.067 s⁻¹ | average length of the functional cycle T = khydr^−1 (BiP NBD [1]; in-cyclo, no calcium): 41 ± 2 s | macroscopic hydrolysis rate khydr (BiP NBD [1]; in-cyclo, no calcium, 37 °C): 1.47 ± 0.05 min⁻¹

O=P(O)(O)O [Pi]
Kd (BiP NBD [2]; 4MABA: Pi binding to NBD·MABA-ADP, 1 mM MABA-ADP): 270 ± 40 µM | Kd (BiP NBD [2]; KD3: Pi binding to apo NBD, 100 μM BiP NBD, 25 °C): 310 ± 40 µM | Kd (BiP NBD [2]; KD4: Pi binding to NBD·ADP, 1 mM ADP): 280 ± 50 µM | Average IMABAADP.pi/IMABAADP (BiP NBD [2]; Pi 0.15 mM): 0.3154 | Average IMABAADP.pi/IMABAADP (BiP NBD [2]; Pi 0.25 mM): 0.5289 | Average IMABAADP.pi/IMABAADP (BiP NBD [2]; Pi 0.5 mM): 0.6366

[Ca+2] [calcium]
cycle (BiP NBD [3]; Fig 5e: with E2, 3.3 mM calcium, ADP:ATP 1:2): 151.31 s and 139.92 s and 133.95 s | cycle (BiP NBD [3]; Fig 5e: with E2, 3.3 mM calcium, ADP:ATP 1:3): 107.58 s and 118.91 s and 122.37 s | cycle (BiP NBD [3]; Fig 5e: with E2, 3.3 mM calcium, ADP:ATP 1:4): 78.87 s and 92.84 s and 108.72 s | cycle (BiP NBD [3]; Fig 5e: with E2, 3.3 mM calcium, ADP:ATP 1:5): 55.19 s and 43.78 s and 57.90 s | cycle (BiP NBD [3]; Fig 5f: without E2, 3.3 mM calcium, ADP:ATP 1:2): 191.98 s and 221.37 s and 190.59 s | cycle (BiP NBD [3]; Fig 5f: without E2, 3.3 mM calcium, ADP:ATP 1:3): 130.46 s and 156.85 s and 135.76 s | cycle (BiP NBD [3]; Fig 5f: without E2, 3.3 mM calcium, ADP:ATP 1:4): 97.52 s and 113.75 s and 85.45 s | cycle (BiP NBD [3]; Fig 5f: without E2, 3.3 mM calcium, ADP:ATP 1:5): 72.26 s and 65.96 s and 73.59 s
